What was measured:
Assay type in all cases: cell-based, murine
c-Raf = assay: Phosphorylation of c-Raf at Ser259 and Ser338, Western blot; conditions: LPS-stimulated macrophage cells, Western blot (FIG. 11)
Experimental: (§1) The prepared murine macrophage cells treated with the LPS in combination with the veratric acid were collected and lysed by using a lysis buffer {50 mM Tris-Cl [pH7.5], 150 mM NaCl, 1 mM DTT, 0.5% NP-40, 1% Triton X-100, 1% deoxycholate, 0.1% SDS and a cocktail of proteinase inhibitors [1 mM PMSF, 1 mM EDTA, 11 μM aprotinin, 11 μM leupeptin, and 11 μM pepstatin A (Intron Biotechnology, Gyeonggi, Korea)]}. Protein samples were electrophoresed by 12% SDS-PAGE and then electrically transferred to a nitrocellulose membrane. Thereafter, the protein samples were allowed to react with primary antibodies capable of recognizing the iNOS. After the membrane was washed and then allowed to react with horseradish peroxidase-linked anti-rabbit IgG or anti-rabbit IgG (Cell Signaling Technology Inc., USA). Then, signals were checked by using an enhanced chemiluminescent (ECL) detection system (Pierce, USA).
If c-Raf (RAF proto-oncogene serine/threonine-protein kinase) is phosphorylated at Ser^338, the c-Raf induces expression of iNOS. Thus, the present inventors checked a protein level of the c-Raf in the LPS-stimulated macrophage cells and a phosphorylated protein level at Ser^259 and Ser^338 of the c-Raf through a Western blot analysis performed in the same manner as Example 3 in order to confirm whether or not the veratric acid affected the protein level of the c-Raf.

TNF-α = TNF-α protein expression, Western blot; conditions: LPS-stimulated RAW264.7 cells, Western blot (FIG. 6)
IκBα = assay: Phosphorylation of IκBα, Western blot; conditions: LPS-stimulated macrophage cells, Western blot (FIGS. 8A, 8B)
Experimental: as §1
(§2) An NF-κB is a transcription factor and when the NF-κB is activated by phosphorylated IκBα, it is moved into a nucleus and bound to a promoter site such that target molecules can be transcribed. Thus, the present inventors performed a Western blot analysis and an immunofluorescent microscopy as follows in order to confirm whether or not the veratric acid affected protein levels of the NF-κB and the IκBα. […]

NF-κB [1] = assay: Intracellular distribution of NF-κB, immunofluorescent microscopy; conditions: 100 μM veratric acid 1 hour, LPS 12 hours, immunofluorescent microscopy (FIGS. 8C, 8D)
From the text: An NF-κB is a transcription factor and when the NF-κB is activated by phosphorylated IκBα, it is moved into a nucleus and bound to a promoter site such that target molecules can be transcribed. Thus, the present inventors performed a Western blot analysis and an immunofluorescent microscopy as follows in order to confirm whether or not the veratric acid affected protein levels of the NF-κB and the IκBα. That is, protein expression levels of the NF-κB and the IκBα in the LPS-stimulated macrophage cells were checked through the Western blot analysis performed in the same manner as Example 3, and in the immunofluorescent microscopy, after 100 μM veratric acid was treated for 1 hour, LPS was incubated for 12 hours, and 4,6-diamidino-2-phenylindole (DAPI) was treated at room temperature for 15 minutes, the cells were immobilized with 4% formaldehyde and then distribution of the NF-κB in the cells was checked visually.

ERK1/2 = assay: Phosphorylation of ERK1/2, Western blot; conditions: LPS-stimulated macrophage cells, Western blot (FIG. 9)
Experimental: as §1
(§3) Protein expression levels of JNK, p38, and ERK1/2 in the LPS-stimulated macrophage cells were checked through a Western blot analysis performed in the same manner as Example 3 in order to confirm whether or not the veratric acid affected an activity of MAPK as a superordinate signaling system that produced pro-inflammatory cytokines.

IFN-γ = IFN-γ protein expression, Western blot; conditions: LPS-stimulated RAW264.7 cells, Western blot (FIG. 6)
IL-1β = IL-1β protein expression, Western blot; conditions: LPS-stimulated RAW264.7 cells, Western blot (FIG. 6)
STAT-1 = assay: Phosphorylation of STAT-1, Western blot; conditions: LPS-stimulated macrophage cells, concentration dependent (FIG. 7)
Experimental: as §1
It is known that secreted IFN-γ promotes phosphorylation of STAT-1 and induces transcription of iNOS, and an activity of the iNOS causes production of nitric oxide and induces inflammation. Therefore, protein expression levels of STAT-1 and phosphorylated STAT-1 were checked through a Western blot analysis performed in the same manner as Example 3 in order to confirm an effect of the veratric acid, which reduced the protein level of the IFN-γ in Example 5, on phosphorylation of STAT-1.

[2] = test system: macrophage RAW264.7 cells; assay: Cytotoxicity of veratric acid, WST-1 cell viability; conditions: up to 200 μM, 3 h pretreatment then 100 ng/ml LPS 24 h
Experimental: Cell lines used to evaluate cytotoxicity of a veratric acid were macrophage RAW264.7, human embryonic kidney (HEK) 293, and human keratinocyte (HaCaT) cells. For a cytotoxicity experiment, the cell lines were first incubated in a culture solution of DMEM containing 10% fetal bovine serum (FBS) and 1% penicillin (100 U/ml)/streptomycin (100 U/ml) under a condition of 5% CO2 at a temperature of 37° C. Then, the incubated cells were seeded in a 96-well plate at 1×10^5 cells/well. Each of the cells was treated at different concentrations (0, 50, 100, 150 and 200 μM) of a veratric acid and incubated for 3 hours. After the incubation, the cells were stimulated with 100 ng/ml LPS contained in a culture medium for 24 hours. Thereafter, the culture solution was removed, and then, the cells were treated with a solution of WST-1® (Daeil Lab service, Korea) and further incubated for 3 hours. An optical density of the culture solution was measured at 460 nm by using an ELIZA analyzer to analyze cell viability.

NF-κB [3] = assay: Phosphorylation of NF-κB, Western blot; conditions: LPS-stimulated macrophage cells, reduction in proportion to concentration (FIGS. 8A, 8B)
Experimental: as §1, §2

IL-6 = IL-6 protein expression, Western blot; conditions: LPS-stimulated RAW264.7 cells, Western blot (FIG. 6)
[4] = test system: nitric oxide production in macrophage RAW264.7 cells; assay: Nitric oxide (NO) production, Griess reagent; conditions: LPS 100 ng/ml in combination with veratric acid 50-200 μM, inhibition in proportion to concentration (FIG. 3B)
Experimental: In order to confirm whether or not the veratric acid has an activity of inhibiting production of nitric oxide that causes inflammation, the following experiment was performed. The prepared macrophage RAW264.7 cells were seeded in a 96-well plate at 1×10^5 cells/well. Each of the cells was treated at different concentrations (0, 50, 100, 150 and 200 μM) of the veratric acid and incubated for 3 hours. The cells were incubated in a culture medium containing 100 ng/ml LPS for 24 hours. Thereafter, a culture solution was acquired. After the culture solution was allowed to react with a Griess reagent, a production level of nitric oxide induced by the LPS was measured at 540 nm by using the ELIZA analyzer (BD PharMingen, USA).

cyclooxygenase-2 (COX-2) = assay: COX-2 gene and protein expression, RT-PCR and Western blot; conditions: LPS-stimulated RAW264.7 cells
[5] = test system: inducible nitric oxide synthase (iNOS); assay: iNOS gene and protein expression, RT-PCR and Western blot; conditions: LPS-stimulated RAW264.7 cells, concentration dependent (FIG. 4)
Experimental: Thus, the present inventors performed an RT-PCR and a Western blot analysis as follows in order to confirm whether or not the veratric acid's mechanism of inhibiting nitric oxide production was operated by regulating expression and protein activity of iNOS as an inducible nitric oxide synthase involved in nitric oxide production.
The prepared murine macrophage RAW264.7 cells treated with the LPS in combination with the veratric acid were used. RNA was extracted and separated from the incubated cells by using 2-mercaptoethanol (Sigma, USA). An RT-PCR was performed by using primers listed in Table 1 with the extracted RNA as a template. Then, after electrophoresis, an expression level of a gene was checked with ultraviolet light.
as §1, with “After the membrane was washed and then allowed to react with horseradish peroxidase-linked anti-rabbit IgG or anti-rabbit IgG (Cell Signaling Technology Inc., USA). Then, signals were checked by using an enhanced chemiluminescent (ECL) detection system (Pierce, USA).” left out

JNK = assay: Phosphorylation of JNK, Western blot; conditions: LPS-stimulated macrophage cells, Western blot (FIG. 9)
Experimental: as §1, §3

p38 = assay: Phosphorylation of p38, Western blot; conditions: LPS-stimulated macrophage cells, Western blot (FIG. 9); stronger effect than on JNK, ERK1/2
Experimental: as §1, §3

GSK-3β = assay: Phosphorylation of GSK-3β, Western blot; conditions: LPS-stimulated macrophage cells, concentration dependent (FIG. 10)
Experimental: as §1
A protein expression level of GSK-3β in the LPS-stimulated macrophage cells was checked through a Western blot analysis performed in the same manner as Example 3 in order to confirm whether or not the veratric acid affected phosphorylation of the GSK-3β as a superordinate signaling system that caused inflammatory reactions.

Question: With `COc1ccc(C(=O)O)cc1OC` [veratric acid, 3,4-Dimethoxybenzoic acid] as the molecule, how does the “phosphorylation at Ser259 of the c-Raf” value (c-Raf) read?
Answer: did not affect

Question: And the “phosphorylation at Ser338 of the c-Raf” value (c-Raf)?
Answer: inhibited

Question: What about the “protein expression level of TNF-α” value (TNF-α) of the same molecule?
Answer: did not affect

Question: And the “phosphorylated IκBα” value (IκBα)?
Answer: reduced

Question: What about the “movement of the NF-κB into the nucleus” value (NF-κB [1]) of the same molecule?
Answer: inhibited

Question: And the “phosphorylation of the ERK1/2” value (ERK1/2)?
Answer: inhibited

Question: What about the “protein expression level of IFN-γ” value (IFN-γ) of the same molecule?
Answer: reduced

Question: And the “protein expression level of IL-1β” value (IL-1β)?
Answer: reduced

Question: What about the “phosphorylation of the STAT-1” value (STAT-1) of the same molecule?
Answer: reduced

Question: What about the “cytotoxicity (cell viability)” value [2] of the same molecule?
Answer: did not show cytotoxicity

Question: And the “protein expression of the phosphorylated NF-κB” value (NF-κB [3])?
Answer: remarkably reduced

Question: And the “protein expression level of IL-6” value (IL-6)?
Answer: did not affect

Question: What about the “excessive production of nitric oxide” value [4] of the same molecule?
Answer: inhibited

Question: And the “gene expression of COX-2” value (cyclooxygenase-2 (COX-2); RT-PCR (FIG. 5))?
Answer: did not affect

Question: What about the “protein expression of COX-2” value (cyclooxygenase-2 (COX-2); Western blot (FIG. 5)) of the same molecule?
Answer: did not affect

Question: What about the “gene expression of iNOS” value ([5]; RT-PCR) of the same molecule?
Answer: decreased or inhibited strongly

Question: And the “protein expression of iNOS” value ([5]; Western blot)?
Answer: decreased or inhibited strongly

Question: What about the “phosphorylation of the JNK” value (JNK) of the same molecule?
Answer: inhibited

Question: What about the “phosphorylation of the p38” value (p38) of the same molecule?
Answer: inhibited

Question: What about the “phosphorylation of the GSK-3β” value (GSK-3β) of the same molecule?
Answer: remarkably inhibited
